Measurements from publication PMC3789677, “Select Dietary Phytochemicals Function as Inhibitors of COX-1 but Not COX-2” (PLoS ONE, 2013).

What was measured:
[1] = molecular target: T1, COX-1 (Ovis aries, UniProt P05979); assay: In vitro COX enzyme assay (COX Inhibitor Screening Kit, Cayman); assay type: biochemical; conditions: means ± S.E.M. of 3 independent experiments
T1 construct: purchased Cayman Chemical Company (Ann Arbor, MI)
T1 sequence (P05979 25-600): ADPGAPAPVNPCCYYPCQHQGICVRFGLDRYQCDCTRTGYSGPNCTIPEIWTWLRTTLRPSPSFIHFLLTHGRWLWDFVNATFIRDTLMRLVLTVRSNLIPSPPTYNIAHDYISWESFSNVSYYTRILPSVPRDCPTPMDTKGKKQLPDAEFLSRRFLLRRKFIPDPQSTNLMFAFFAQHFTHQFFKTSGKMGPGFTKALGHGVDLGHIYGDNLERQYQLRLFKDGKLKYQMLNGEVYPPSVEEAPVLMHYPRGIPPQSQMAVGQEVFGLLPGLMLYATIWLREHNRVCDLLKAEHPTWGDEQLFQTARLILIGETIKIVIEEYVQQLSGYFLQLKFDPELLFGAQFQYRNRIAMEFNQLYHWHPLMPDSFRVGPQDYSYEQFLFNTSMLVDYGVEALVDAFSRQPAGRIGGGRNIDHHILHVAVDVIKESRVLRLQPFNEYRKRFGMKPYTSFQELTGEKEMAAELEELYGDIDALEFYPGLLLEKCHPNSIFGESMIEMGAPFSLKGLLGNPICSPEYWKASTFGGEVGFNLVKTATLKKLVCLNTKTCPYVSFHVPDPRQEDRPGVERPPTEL
Description: (§1) COX activity was evaluated using a COX Inhibitor Screening Kit from Cayman Chemical Company (Ann Arbor, MI) according to the manufacturer’s instructions.

[2] = molecular target: T2, COX-2 (Homo sapiens, UniProt P35354); assay: as above; assay type: biochemical; conditions: means ± S.E.M. of 3 independent experiments
T2 construct: purchased Cayman Chemical Company (Ann Arbor, MI)
T2 sequence (P35354 18-604): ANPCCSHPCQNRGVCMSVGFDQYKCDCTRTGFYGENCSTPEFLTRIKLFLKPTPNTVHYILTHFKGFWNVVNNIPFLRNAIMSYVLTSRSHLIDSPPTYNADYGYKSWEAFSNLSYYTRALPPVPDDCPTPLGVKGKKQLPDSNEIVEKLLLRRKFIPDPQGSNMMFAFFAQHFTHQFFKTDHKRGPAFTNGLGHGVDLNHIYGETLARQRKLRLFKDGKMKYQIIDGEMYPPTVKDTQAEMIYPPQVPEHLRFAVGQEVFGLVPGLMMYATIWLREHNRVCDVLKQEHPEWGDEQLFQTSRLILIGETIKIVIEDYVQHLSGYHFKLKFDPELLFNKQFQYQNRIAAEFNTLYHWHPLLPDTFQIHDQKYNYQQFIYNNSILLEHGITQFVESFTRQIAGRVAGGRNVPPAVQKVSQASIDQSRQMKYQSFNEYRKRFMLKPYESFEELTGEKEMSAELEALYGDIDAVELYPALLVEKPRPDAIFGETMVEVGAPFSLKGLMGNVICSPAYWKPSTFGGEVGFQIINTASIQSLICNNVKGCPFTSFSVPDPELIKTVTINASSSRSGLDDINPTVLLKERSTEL
Description: as §1

[3] = test system: human umbilical vein endothelial cells (HUVECs); assay: TXB2 and 6-keto PGF1α assay in HUVECs (ratio as cardiovascular toxicity biomarker); assay type: cell-based; conditions: 3 µM
Description: Cells (6×10^5) were seeded in a six-well plate in the presence of 10% FBS. At 70-80% confluence, cells were pretreated with vehicle or individual compounds in 1 mL fresh medium for 2 h. […] Supernatant fractions were collected for prostaglandin measurement using enzyme immunoassay kits (Cayman Chemical Company).
Figure 2 Effects of dietary phytochemicals on (A) TXB2 and (B) 6-keto-PGF1α under physiological conditions. HUVECs were seeded in a six-well-plate (6×10^5 cells per well). At 70-80% confluence, 1 mL fresh medium containing DMSO or 3 µM of each individual compound was added and cells were further incubated for 8 h. Supernatant fractions were collected for prostaglandin measurement. (C) The ratio of TXB2/6-keto-PGF1α. Data are presented as means ± S.E.M (n = 4) and the asterisk(s) indicate a significant (*, p < 0.05; ***, p < 0.001) difference versus the vehicle control group.

IC50 [1] [µM] | IC50 [2] [µM] | Compound | ratio of TXB2/6-keto-PGF1α ([3]; physiological conditions, 8 h (Figure 2)) | ratio of TXB2/6-keto-PGF1α ([3]; pro-inflammatory conditions, 2 h pretreatment then IL-1β 17.5 ng/mL for 8 h (Figure 3))
94.1 ± 12.3 | – | O=c1cc(-c2ccc(O)cc2)oc2cc(O)cc(O)c12 [Apigenin] | – | –
> 400 | > 400 | O=C1C[C@@H](c2ccc(O)cc2)Oc2cc(O)cc(O)c21 [Naringenin] | – | –
> 400 | > 400 | O=c1c(O)c(-c2ccc(O)c(O)c2)oc2cc(O)cc(O)c12 [Quercetin] | – | –

Second part, the compound before the results:

Compound | IC50 [1] [µM] | IC50 [2] [µM] | ratio of TXB2/6-keto-PGF1α ([3]; physiological conditions, 8 h (Figure 2)) | ratio of TXB2/6-keto-PGF1α ([3]; pro-inflammatory conditions, 2 h pretreatment then IL-1β 17.5 ng/mL for 8 h (Figure 3))
COc1cc(/C=C/C(=O)CC(=O)/C=C/c2ccc(O)c(OC)c2)ccc1O [Curcumin] | 330 ± 34.3 | – | – | –
O=C(O[C@@H]1Cc2c(O)cc(O)cc2O[C@@H]1c1cc(O)c(O)c(O)c1)c1cc(O)c(O)c(O)c1 [EGCG] | 17.9 ± 4.2 | 28.6 ± 3.8 | most potent inhibitory effect | most potent inhibitory effect
O=c1c(-c2ccc(O)cc2)coc2cc(O)cc(O)c12 [Genistein] | 9.9 ± 2.3 | 256 ± 35.7 | – | –
O=c1c(O)c(-c2ccc(O)cc2)oc2cc(O)cc(O)c12 [Kaempferol] | 111 ± 7.5 | 236 ± 19.7 | – | –
Oc1ccc(/C=C/c2cc(O)cc(O)c2)cc1 [Resveratrol] | 3.4 ± 1.1 | – | – | –
